{
  "source": "patent US10550113B2",
  "about": "“2-phenyl-3H-imidazo[4,5-B]pyridine derivates useful as inhibitors of mammalian tyrosine kinase ROR1 activity” (Kancera AB, priority 2015, dated 2020)",
  "key": {"PBMC from CLL patients": {"test_system": "PBMC from CLL patients", "assay": "CellTiter-Blue cell viability assay, cell toxicity in PBMC from CLL patients", "type": "cell-based", "details": "Homo sapiens, 50 000 cells/well, cultured 24, 48 and 72 h (time of the IC50 not stated), % cytotoxicity vs 0.2% DMSO", "description": "(§1) Method for Measurement of Cell Toxicity\n(§2) The CellTiter-Blue® Cell Viability Assay provides a homogeneous, fluorometric method for estimating the number of viable cells present in multi-well plates. The assay uses the indicator dye resazurin to measure the metabolic capacity of cells. Viable cells retain the ability to reduce resazurin into resorufin, which is highly fluorescent.\n(§3) Stock solutions (10 or 100 mM in DMSO) of compounds were serially diluted 1:2 in 11 concentrations and 25 nL/well (100 mM stock) or 50 nL/well (10 mM stock) were acoustically dispensed in assay plates with an EDC acoustic dispenser. Final starting concentration in the assay was 20 μM (0.2% DMSO) or 100 μM (0.1% DMSO) for test compounds.\n(§4) Peripheral blood mononuclear cells (PBMC) from CLL patients or healthy volunteers were seeded in assay plates (384-well black/clear, Greiner #781091) pre-dispensed with compounds, 25 μL/well, and cultured for 24, 48 and 72 h. The cell concentration was 50 000 cells/well for PBMC from CLL patients or healthy volunteers. After 24, 48 and 72 h culture, Celltiter Blue reagent was added (5 μL/well) and the plates were incubated for 2 h. The plates were read in an Envision fluorescence reader (PerkinElmer) with Ex544 nm/Em590 nm. Results were calculated as % cytotoxicity compared to background (cells treated with 0.2% DMSO).\n(§5) Thus, IC50 values for cell toxicity in PBMC from CLL patients as well as healthy volunteers for some compounds of the invention are shown in Table 3."}, "[1]": {"assay": "CellTiter-Blue cell viability assay, cell toxicity in PBMC from healthy volunteers", "type": "cell-based", "details": "human, 50 000 cells/well, cultured 24, 48 and 72 h (time of the IC50 not stated), % cytotoxicity vs 0.2% DMSO", "description": "as §1, §2, §3, §4, §5"}},
  "data": [
    {"smiles": "CN1CCC(Nc2c(Br)cnc3[nH]c(-c4ccc(OCC(=O)NC5CCCC5)cc4)nc23)CC1", "note": "[Example 259, 2-(4-{6-bromo-7-[(1-methylpiperidin-4-yl)amino]-3H-imidazo[4,5-b]pyridin-2-yl}phenoxy)-N-cyclopentylacetamide]", "values": [
      {"measurement": "IC50", "setting": "PBMC from CLL patients", "result": 33, "unit": "nM"},
      {"measurement": "IC50", "setting": "[1]", "result": 11.1, "unit": "µM"}
    ]},
    {"smiles": "CNC(=O)COc1ccc(-c2nc3c(NC4CCN(CCOc5ccccc5)CC4)c(Cl)cnc3[nH]2)cc1", "note": "[Example 96, 2-[4-(6-chloro-7-{[1-(2-phenoxyethyl)piperidin-4-yl]amino}-3H-imidazo[4,5-b]pyridin-2-yl)phenoxy]-N-methylacetamide]", "values": [
      {"measurement": "IC50", "setting": "PBMC from CLL patients", "result": 310, "unit": "nM"},
      {"measurement": "IC50", "setting": "[1]", "result": 13.6, "unit": "µM"}
    ]},
    {"smiles": "CN(C)C(=O)COc1ccc(-c2nc3c(N[C@H]4CCN(Cc5ccccc5)C4)c(Cl)cnc3[nH]2)cc1", "note": "[Example 64, 2-[4-(7-{[(3S)-1-benzylpyrrolidin-3-yl]amino}-6-chloro-3H-imidazo[4,5-b]pyridin-2-yl)phenoxy]-N,N-dimethylacetamide]", "values": [
      {"measurement": "IC50", "setting": "PBMC from CLL patients", "result": 890, "unit": "nM"},
      {"measurement": "IC50", "setting": "[1]", "result": 13.9, "unit": "µM"}
    ]},
    {"smiles": "CN(C)CCNC(=O)COc1ccc(-c2nc3c(NC4CCN(CCc5ccccc5)CC4)c(Cl)cnc3[nH]2)cc1", "note": "[Example 3, 2-[4-(6-chloro-7-{[1-(2-phenylethyl)piperidin-4-yl]amino}-3H-imidazo[4,5-b]pyridin-2-yl)phenoxy]-N-[2-(dimethylamino)ethyl]acetamide]", "values": [
      {"measurement": "IC50", "setting": "PBMC from CLL patients", "result": 1200, "unit": "nM"},
      {"measurement": "IC50", "setting": "[1]", "result": 9.9, "unit": "µM"}
    ]},
    {"smiles": "CNC(=O)COc1ccc(-c2nc3c(NC4CCN(C)CC4)c(Cl)cnc3[nH]2)cc1OC", "note": "[Example 168, 2-(4-{6-chloro-7-[(1-methylpiperidin-4-yl)amino]-3H-imidazo[4,5-b]pyridin-2-yl}-2-methoxyphenoxy)-N-methylacetamide]", "values": [
      {"measurement": "IC50", "setting": "PBMC from CLL patients", "result": 250, "unit": "nM"},
      {"measurement": "IC50", "setting": "[1]", "result": "> 20", "unit": "µM"}
    ]},
    {"smiles": "CNC(=O)COc1ccc(-c2nc3c(NC4CCN(C)CC4)c(Br)cnc3[nH]2)cc1F", "note": "[Example 184, 2-(4-{6-bromo-7-[(1-methylpiperidin-4-yl)amino]-3H-imidazo[4,5-b]pyridin-2-yl}-2-fluorophenoxy)-N-methylacetamide]", "values": [
      {"measurement": "IC50", "setting": "PBMC from CLL patients", "result": 110, "unit": "nM"},
      {"measurement": "IC50", "setting": "[1]", "result": "> 20", "unit": "µM"}
    ]},
    {"smiles": "CNC(=O)CCNc1ccc(-c2nc3c(NC4CCN(C)CC4)c(Cl)cnc3[nH]2)cc1", "note": "[Example 302, N^3-(4-{6-chloro-7-[(1-methylpiperidin-4-yl)amino]-3H-imidazo[4,5-b]pyridin-2-yl}phenyl)-N-methyl-b-alaninamide]", "values": [
      {"measurement": "IC50", "setting": "PBMC from CLL patients", "result": 620, "unit": "nM"},
      {"measurement": "IC50", "setting": "[1]", "result": "> 20", "unit": "µM"}
    ]},
    {"smiles": "CNC(=O)COc1ccc(-c2nc3c(NC4CCN(Cc5ccc(-n6cncn6)cc5)CC4)c(Cl)cnc3[nH]2)cc1", "note": "[Example 99, 2-{4-[6-chloro-7-({1-[4-(1H-1,2,4-triazol-1-yl)benzyl]piperidin-4-yl}amino)-3H-imidazo[4,5-b]pyridin-2-yl]phenoxy}-N-methylacetamide]", "values": [
      {"measurement": "IC50", "setting": "PBMC from CLL patients", "result": 270, "unit": "nM"},
      {"measurement": "IC50", "setting": "[1]", "result": "> 20", "unit": "µM"}
    ]},
    {"smiles": "CNC(=O)Cc1ccc(-c2nc3c(NC4CCN(C)CC4)c(Cl)cnc3[nH]2)cc1", "note": "[Example 232, 2-(4-{6-chloro-7-[(1-methylpiperidin-4-yl)amino]-3H-imidazo[4,5-b]pyridin-2-yl}phenyl)-N-methylacetamide]", "values": [
      {"measurement": "IC50", "setting": "PBMC from CLL patients", "result": 570, "unit": "nM"},
      {"measurement": "IC50", "setting": "[1]", "result": "> 20", "unit": "µM"}
    ]},
    {"smiles": "CNC(=O)COc1ccc(-c2nc3c(NC4CCN(C)CC4)c(Br)cnc3[nH]2)c(C)c1", "note": "[Example 159, 2-(4-{6-bromo-7-[(1-methylpiperidin-4-yl)amino]-3H-imidazo[4,5-b]pyridin-2-yl}-3-methylphenoxy)-N-methylacetamide]", "values": [
      {"measurement": "IC50", "setting": "PBMC from CLL patients", "result": 310, "unit": "nM"},
      {"measurement": "IC50", "setting": "[1]", "result": "> 20", "unit": "µM"}
    ]},
    {"smiles": "CNC(=O)COc1ccc(-c2nc3c(N(C)C4CCN(Cc5ccccc5)CC4)c(Cl)cnc3[nH]2)cc1", "note": "[Example 19, 2-(4-{7-[(1-benzylpiperidin-4-yl)(methyl)amino]-6-chloro-3H-imidazo[4,5-b]pyridin-2-yl}phenoxy)-N-methylacetamide]", "values": [
      {"measurement": "IC50", "setting": "PBMC from CLL patients", "result": 3230, "unit": "nM"},
      {"measurement": "IC50", "setting": "[1]", "result": "> 20", "unit": "µM"}
    ]},
    {"smiles": "CN(C)CCNC(=O)COc1ccc(-c2nc3c(NC4CCN(Cc5ccsc5)CC4)c(Cl)cnc3[nH]2)cc1", "note": "[Example 15, 2-[4-(6-chloro-7-{[1-(thiophen-3-ylmethyl)piperidin-4-yl]amino}-3H-imidazo[4,5-b]pyridin-2-yl)phenoxy]-N-[2-(dimethylamino)ethyl]acetamide]", "values": [
      {"measurement": "IC50", "setting": "PBMC from CLL patients", "result": 790, "unit": "nM"},
      {"measurement": "IC50", "setting": "[1]", "result": 13.9, "unit": "µM"}
    ]},
    {"smiles": "CNC(=O)COc1ccc(-c2nc3c(NC4CCN(Cc5ccc(C)cc5)CC4)c(Cl)cnc3[nH]2)cc1", "note": "[Example 82, 2-[4-(6-chloro-7-{[1-(4-methylbeiizyl)piperidin-4-yl]amino}-3H-imidazo[4,5-b]pyridin-2-yl)phenoxy]-N-methylacetamide]", "values": [
      {"measurement": "IC50", "setting": "PBMC from CLL patients", "result": 480, "unit": "nM"},
      {"measurement": "IC50", "setting": "[1]", "result": "> 20", "unit": "µM"}
    ]},
    {"smiles": "CCN1CC[C@H](Nc2c(Cl)cnc3[nH]c(-c4ccc(OCC(=O)NC)cc4)nc23)C1", "note": "[Example 132, 2-[4-(6-chloro-7-{[(3S)-1-ethylpyrrolidin-3-yl]amino}-3H-imidazo[4,5-b]pyridin-2-yl)phenoxy]-N-methylacetamide]", "values": [
      {"measurement": "IC50", "setting": "PBMC from CLL patients", "result": 860, "unit": "nM"},
      {"measurement": "IC50", "setting": "[1]", "result": "> 20", "unit": "µM"}
    ]},
    {"smiles": "CNC(=O)COc1ccc(-c2nc3c(N[C@H]4CCN(Cc5ccc(OC)cc5)C4)c(Cl)cnc3[nH]2)cc1", "note": "[Example 43, 2-[4-(6-chloro-7-{[(3S)-1-(4-methoxybenzyl)pyrrolidin-3-yl]amino}-3H-imidazo[4,5-b]pyridin-2-yl)phenoxy]-N-methylacetamide]", "values": [
      {"measurement": "IC50", "setting": "PBMC from CLL patients", "result": 1740, "unit": "nM"},
      {"measurement": "IC50", "setting": "[1]", "result": "> 20", "unit": "µM"}
    ]},
    {"smiles": "CN(C)CCNC(=O)COc1ccc(-c2nc3c(N[C@H]4CCN(Cc5ccccc5)C4)c(Cl)cnc3[nH]2)cc1", "note": "[Example 2, 2-[4-(7-{[(3S)-1-benzylpyrrolidin-3-yl]amino}-6-chloro-3H-imidazo[4,5-b]pyridin-2-yl)phenoxy]-N-[2-(dimethylamino)ethyl]acetamide]", "values": [
      {"measurement": "IC50", "setting": "PBMC from CLL patients", "result": 1300, "unit": "nM"},
      {"measurement": "IC50", "setting": "[1]", "result": 13.8, "unit": "µM"}
    ]},
    {"smiles": "CNC(=O)COc1cccc(-c2nc3c(NC4CCN(C)CC4)c(Cl)cnc3[nH]2)c1", "note": "[Example 117, 2-(3-{6-chloro-7-[(1-methylpiperidin-4-yl)amino]-3H-imidazo[4,5-b]pyridin-2-yl}phenoxy)-N-methylacetamide]", "values": [
      {"measurement": "IC50", "setting": "PBMC from CLL patients", "result": 320, "unit": "nM"},
      {"measurement": "IC50", "setting": "[1]", "result": "> 20", "unit": "µM"}
    ]},
    {"smiles": "CNC(=O)COc1ccc(-c2nc3c(NC4CCN(Cc5ccc(NC(C)=O)cc5)CC4)c(Cl)cnc3[nH]2)cc1", "note": "[Example 75, 2-[4-(7-{[1-(4-acetamidobenzyl)piperidin-4-yl]amino}-6-chloro-3H-imidazo[4,5-b]pyridin-2-yl)phenoxy]-N-methylacetamide]", "values": [
      {"measurement": "IC50", "setting": "PBMC from CLL patients", "result": 1120, "unit": "nM"},
      {"measurement": "IC50", "setting": "[1]", "result": "> 20", "unit": "µM"}
    ]},
    {"smiles": "CNC(=O)COc1ccc(-c2nc3c(NC4CCN(Cc5ccncc5)CC4)c(Cl)cnc3[nH]2)cc1", "note": "[Example 71, 2-[4-(6-chloro-7-{[1-(pyridin-4-ylmethyl)piperidin-4-yl]amino}-3H-imidazo[4,5-b]pyridin-2-yl)phenoxy]-N-methylacetamide]", "values": [
      {"measurement": "IC50", "setting": "PBMC from CLL patients", "result": 1900, "unit": "nM"},
      {"measurement": "IC50", "setting": "[1]", "result": "> 20", "unit": "µM"}
    ]},
    {"smiles": "CN1CCC(Nc2c(Cl)cnc3[nH]c(-c4ccc(OCC(=O)NCCC5CCOCC5)cc4)nc23)CC1", "note": "[Example 147, 2-(4-{6-chloro-7-[(1-methylpiperidin-4-yl)amino]-3H-imidazo[4,5-b]pyridin-2-yl}phenoxy)-N-[2-(tetrahydro-2H-pyran-4-yl)ethyl]acetamide]", "values": [
      {"measurement": "IC50", "setting": "PBMC from CLL patients", "result": 140, "unit": "nM"},
      {"measurement": "IC50", "setting": "[1]", "result": "> 20", "unit": "µM"}
    ]},
    {"smiles": "CN1CCC(Nc2c(Cl)cnc3[nH]c(-c4ccc(OCCNC(=O)c5ccncc5)cc4)nc23)CC1", "note": "[Example 272, N-[2-(4-{6-chloro-7-[(1-methylpiperidin-4-yl)amino]-3H-imidazo[4,5-b]pyridin-2-yl}phenoxy)ethyl]pyridine-4-carboxamide]", "values": [
      {"measurement": "IC50", "setting": "PBMC from CLL patients", "result": 250, "unit": "nM"},
      {"measurement": "IC50", "setting": "[1]", "result": "> 20", "unit": "µM"}
    ]}
  ]
}
